Values joined by “and” are separate entries in the source; they are usually repeats but may differ in a detail not shown here. Equal entries are not always repeated. “Also recorded” adds a separate entry of the source. Where two headings read alike, the source gives them in different places.
What was measured:
[1] = tested on: indigenous denitrifying bacteria naturally present in the groundwater; test: Serum bottle denitrification of Tuba City groundwater amended with carbon and phosphorus sources; type: cell-based; conditions: for concentration (as high as) at which activity of denitrifiers was not inhibited: initial nitrate about 21 mM
Method: In situ biological denitrification was studied as a groundwater remediation process with nitrogen as the final product at an UMTRA site in Tuba City, Ariz. Nitrate contaminated groundwater and soil from the contaminated field site were used, and in all experiments the initial nitrate concentration was about 1300 mg/L and the pH was 7.5-8. Denitrification was studied in a 2.5 L fermentor and in 120 mL serum bottles using a water to soil ratio of 100 mL/8 g and indigenous denitrifying bacteria naturally present in the groundwater. Oxygen was removed initially by purging with argon for 15 minutes. […] Nitrate, nitrite, carbon source, and pH changes were monitored during denitrification. Eh was indicated using a resazurin dye. […] For each carbon source, the stoichiometric equation is present, and a theoretical yield coefficient was determined from each stoichiometric equation.
The water samples were kept in 1000 mL plastic bottles and reserved in a refrigerator.
Chemicals used for phosphorus amendment included orthophosphate KH2PO4, trimetaphosphate Na3P3O9 (Sigma Co.) and polyphosphate (NaPO3)n (Aldrich Co.). All chemicals were A.C.S. reagent grade. Crushed sands were prepared by pulverizing the core samples (about 47 to 100 feet depth) from the Tuba City site using a pestle and mortar. This Navajo sandstone is a fine to fine grained unit with median grain size diameter (d50) about 0.11 mm. The sandstone was kept without contamination by organic chemicals.
(§1) Stock solution mixtures with neutral pH and total volume less than 15 mL for denitrification amendment, including carbon source and phosphorus sources, 0.05 mL of a 0.2% resazurin solution (redox potential indicator), and 8 g crushed sand for part experiments, were added into a 160 mL serum bottle, which was then autoclaved at 121° C. (250° F.) for 20 min. Groundwater sample was added under aseptic environment after the bottle cooled down, and the serum bottle was sealed with a butyl rubber stopper and crimped with an aluminum seal. Total volume of the liquid was about 100 to 120 mL. The solution was then purged with argon gas through a 22 gauge long needle for 15 min to ensure that an anaerobic environment was maintained, and another needle was used for gas exhaustion at the same time. The exhaustion needle was taken out before the spinal needle was done, and the serum bottle was pressurized under 7-10 psig. To keep the gas phase sterile, a gas filter with 0.2 μm pore size was used. Serum bottles were kept either at room temperature about 23±1° C. and shaken 2 to 3 times every day or kept at 16° C. in a Lindberg/Blue M constant temperature refrigerated shaker waterbath model RSWB3222A (A General Signal Company, NC). No denitrifying bacteria were inoculated to water samples, and pH was not controlled for all of the experiments. Denitrification process via the activity of the indigenous denitrifiers present in the groundwater was monitored. Disposable syringes were used for sampling.
The IC unit, Dionex DX 500 chromatography system (Dionex Co., CA), consists of a GP 40-1 gradient pump, an ED 40-1 electrochemical detector, and a LC 10-2 chromatography organizer with an lonpac AS 11 analytical column (4 mm) and an ASRS-1 (4 mm) anion self-regenerating suppresser as its main components. This lonpac AS 11 4-mm analytical column with functional group of alkanol quaternary ammonium is designed to resolve a number of inorganic anions and organic acid anions from a single sample injection in one gradient run using hydroxide eluent systems such as NaOH used in our experiment.

[2] = tested on: indigenous bacteria; test: Batch denitrification of Mountainview groundwater; type: cell-based
[3] = Phosphate precipitation in amended groundwater (serum bottles); type: physicochemical; conditions: for calcium phosphate precipitation as compared to orthophosphate: Tuba City groundwater
Method: as §1, with “The solution was then purged with argon gas through a 22 gauge long needle for 15 min to ensure that an anaerobic environment was maintained, and another needle was used for gas exhaustion at the same time.” left out
Triple serum bottle experiments were run in parallel at room temperature about 23±1° C.

[4] = complete = <1 mg/L for N, core sand, KH2PO4, 23±1° C.
[5] = groundwater with core sand, KH2PO4 100 mg/L, 23±1° C.
[6] = serum bottles purged with argon

CC(O)C(=O)[O-].[Na+] (stereo not shown) [Lactate, sodium lactate]
minimum C/N molar ratio for complete denitrification [1, 4]: 2
C/N molar ratio for nearly complete denitrification (Table 5) [1, 5]: 2.000
C/N molar ratio, minimum for nearly complete denitrification [1, 5]: 2.000

CCO [Ethanol, ethanol]
minimum C/N molar ratio for complete denitrification [1, 4]: 1.083
C/N molar ratio for nearly complete denitrification (Table 5) [1, 5]: 1.083
C/N molar ratio, minimum for nearly complete denitrification [1, 5]: 1.083
concentration (as high as) at which activity of denitrifiers was not inhibited [1]: 25 mM
denitrification time ([1]; orthophosphate, whole group of experiments finished, FIG. 5(f)): about 3.5 weeks
time at which nitrate reduction completed or stopped ([1]; polyphosphate 100 mg NaPO3/L, core sand, argon purge, 23±1° C., ethanol insufficient for complete denitrification): about 30 days

CC(=O)[O-].[K+] [Acetate, potassium acetate]
denitrification via indigenous bacteria ([2]; potassium acetate without TMP): did not work
C/N molar ratio for nearly complete denitrification (Table 5) [1]: 1.425
C/N molar ratio, minimum for nearly complete denitrification [1]: 1.425
Denitrification efficiency [1]: 0% and 7-10%
minimum C/N molar ratio for complete denitrification [1]: 1.425
nitrate reduced after two months [1]: 5%

O=P1([O-])OP(=O)([O-])OP(=O)([O-])O1.[Na+].[Na+].[Na+] [TMP, trimetaphosphate]
denitrification via indigenous bacteria ([2]; groundwater amended with potassium acetate and 20 mg TMP/L): worked successfully
calcium phosphate precipitation as compared to orthophosphate [3]: reduced calcium phosphate precipitation
phosphate precipitate observed in groundwater [3, 6]: No phosphate precipitate was found in three weeks; also recorded: No phosphate precipitate was found while purging with argon, even in two weeks
time to complete denitrification ([1]; TMP 100 mg NaPO3/L and acetate, with sand, 16° C.): 28 days
denitrification time longer than with orthophosphate ([1]; TMP and acetate, with sand, 16° C.): 11 days

O=P(O)(O)O [orthophosphate, reference compound]
phosphate precipitate observed in groundwater [3, 6]: Precipitate of orthophosphate (0.7-0.8 mM) formed

polyphosphate
calcium phosphate precipitation as compared to orthophosphate [3]: reduced calcium phosphate precipitation
phosphate precipitate observed in groundwater ([3]; acetate and polyphosphate, no core sand, without purging with argon): Phosphate precipitate was not found; also recorded: White precipitates were not found until a week later
phosphate precipitate observed in groundwater [3, 6]: precipitate was found right after purging with argon; also recorded: white precipitates appeared while purging with argon

CO [Methanol, methanol]
minimum C/N molar ratio for complete denitrification [1, 4]: 1
C/N molar ratio for nearly complete denitrification (Table 5) [1, 5]: 1.000
C/N molar ratio, minimum for nearly complete denitrification [1, 5]: 1.000
concentration (as high as) at which activity of denitrifiers was not inhibited [1]: 45 mM

Source: US6551815B1, “In situ denitrification” (University of New Mexico, priority 1997, dated 2003)
